Patent US20240382629A1, “HETEROBIVALENT AND HOMOBIVALENT AGENTS TARGETING FIBROBLAST ACTIVATION PROTEIN ALPHA AND/OR PROSTATE-SPECIFIC MEMBRANE ANTIGEN” (The Johns Hopkins University, priority 2021, published 2024)
“And” between values parts separate entries of the source, which are not always exact repeats. Equal values may be shown once.

Test: Biodistribution of [^18F]JHU122047 with UAMC-01110 blocker
Format: in vivo, mouse
Settings: Nude Model, 60 min; for % ID/g Bladder / % ID/g Blood / % ID/g Brain / % ID/g Fat / % ID/g Femur / % ID/g Heart / % ID/g Kidney / % ID/g Large intestine / % ID/g Liver / % ID/g Lung / % ID/g Muscle / % ID/g Pancreas / % ID/g Salivery gland / % ID/g Small intestine / % ID/g Spleen / % ID/g Stomach / % ID/g Tumor: individual mouse

N#C[C@@H]1CCCN1C(=O)CNC(=O)c1ccnc2ccc(OCCCNC(=O)[C@H](CCNC(=O)c3ccc([18F])nc3)NC(=O)CN3CCN(CC(=O)[O-])CCN(CC(=O)[O-])CCN(CC(=O)[O-])CC3)cc12.[In+3] [[^18F]Sri-08-51]
% ID/g Bladder (+ Blocker (UAMC-01110)): 0.22 % ID/g and 0.74 % ID/g
% ID/g Blood (+ Blocker (UAMC-01110)): 0.10 % ID/g
% ID/g Brain (+ Blocker (UAMC-01110)): 0.01 % ID/g
% ID/g Fat (+ Blocker (UAMC-01110)): 0.03 % ID/g and 0.01 % ID/g
% ID/g Femur (+ Blocker (UAMC-01110)): 0.12 % ID/g
% ID/g Heart (+ Blocker (UAMC-01110)): 0.05 % ID/g
% ID/g Kidney (+ Blocker (UAMC-01110)): 1.19 % ID/g and 1.05 % ID/g
% ID/g Large intestine (+ Blocker (UAMC-01110)): 0.08 % ID/g and 0.11 % ID/g
% ID/g Liver (+ Blocker (UAMC-01110)): 1.88 % ID/g and 2.01 % ID/g
% ID/g Lung (+ Blocker (UAMC-01110)): 0.21 % ID/g and 0.22 % ID/g
% ID/g Muscle (+ Blocker (UAMC-01110)): 0.07 % ID/g and 0.04 % ID/g
% ID/g Pancreas (+ Blocker (UAMC-01110)): 0.05 % ID/g
% ID/g Salivery gland (+ Blocker (UAMC-01110)): 0.07 % ID/g and 0.08 % ID/g
% ID/g Small intestine (+ Blocker (UAMC-01110)): 3.50 % ID/g and 2.97 % ID/g
% ID/g Spleen (+ Blocker (UAMC-01110)): 0.08 % ID/g
% ID/g Stomach (+ Blocker (UAMC-01110)): 0.08 % ID/g and 0.15 % ID/g
% ID/g Tumor (+ Blocker (UAMC-01110)): 0.17 % ID/g and 0.18 % ID/g
% ID/g Bladder Mean (+ Blocker (UAMC-01110)): 0.48 % ID/g
% ID/g Blood Mean (+ Blocker (UAMC-01110)): 0.10 % ID/g
% ID/g Brain Mean (+ Blocker (UAMC-01110)): 0.01 % ID/g
% ID/g Fat Mean (+ Blocker (UAMC-01110)): 0.02 % ID/g
% ID/g Femur Mean (+ Blocker (UAMC-01110)): 0.12 % ID/g
% ID/g Heart Mean (+ Blocker (UAMC-01110)): 0.05 % ID/g
% ID/g Kidney Mean (+ Blocker (UAMC-01110)): 1.12 % ID/g
% ID/g Large intestine Mean (+ Blocker (UAMC-01110)): 0.09 % ID/g
% ID/g Liver Mean (+ Blocker (UAMC-01110)): 1.95 % ID/g
% ID/g Lung Mean (+ Blocker (UAMC-01110)): 0.21 % ID/g
% ID/g Muscle Mean (+ Blocker (UAMC-01110)): 0.05 % ID/g
% ID/g Pancreas Mean (+ Blocker (UAMC-01110)): 0.05 % ID/g
% ID/g Salivary gland Mean (+ Blocker (UAMC-01110)): 0.08 % ID/g
% ID/g Small intestine Mean (+ Blocker (UAMC-01110)): 3.24 % ID/g
% ID/g Spleen Mean (+ Blocker (UAMC-01110)): 0.08 % ID/g
% ID/g Stomach Mean (+ Blocker (UAMC-01110)): 0.11 % ID/g
% ID/g Tumor Mean (+ Blocker (UAMC-01110)): 0.18 % ID/g
% ID/g Bladder (no blocker): 1.18 % ID/g and 2.99 % ID/g
% ID/g Blood (no blocker): 3.06 % ID/g and 3.20 % ID/g
% ID/g Brain (no blocker): 0.09 % ID/g and 0.08 % ID/g
% ID/g Fat (no blocker): 0.52 % ID/g and 0.77 % ID/g
% ID/g Femur (no blocker): 4.44 % ID/g and 3.86 % ID/g
% ID/g Heart (no blocker): 1.35 % ID/g and 1.52 % ID/g
% ID/g Kidney (no blocker): 1.69 % ID/g and 1.72 % ID/g
% ID/g Large intestine (no blocker): 1.20 % ID/g and 1.30 % ID/g
% ID/g Liver (no blocker): 1.81 % ID/g and 1.93 % ID/g
% ID/g Lung (no blocker): 2.03 % ID/g and 2.25 % ID/g
% ID/g Muscle (no blocker): 1.86 % ID/g and 1.93 % ID/g
% ID/g Pancreas (no blocker): 3.94 % ID/g and 3.77 % ID/g
% ID/g Salivery gland (no blocker): 7.74 % ID/g
% ID/g Small intestine (no blocker): 1.93 % ID/g and 1.63 % ID/g
% ID/g Spleen (no blocker): 0.90 % ID/g and 1.02 % ID/g
% ID/g Stomach (no blocker): 1.06 % ID/g and 1.16 % ID/g
% ID/g Tumor (no blocker): 10.87 % ID/g and 13.08 % ID/g
% ID/g Bladder Mean (no blocker): 2.09 % ID/g
% ID/g Blood Mean (no blocker): 3.13 % ID/g
% ID/g Brain Mean (no blocker): 0.09 % ID/g
% ID/g Fat Mean (no blocker): 0.64 % ID/g
% ID/g Femur Mean (no blocker): 4.15 % ID/g
% ID/g Heart Mean (no blocker): 1.43 % ID/g
% ID/g Kidney Mean (no blocker): 1.70 % ID/g
% ID/g Large intestine Mean (no blocker): 1.25 % ID/g
% ID/g Liver Mean (no blocker): 1.87 % ID/g
% ID/g Lung Mean (no blocker): 2.14 % ID/g
% ID/g Muscle Mean (no blocker): 1.90 % ID/g
% ID/g Pancreas Mean (no blocker): 3.85 % ID/g
% ID/g Salivary gland Mean (no blocker): 8.22 % ID/g
% ID/g Small intestine Mean (no blocker): 1.78 % ID/g
% ID/g Spleen Mean (no blocker): 0.96 % ID/g
% ID/g Stomach Mean (no blocker): 1.11 % ID/g
% ID/g Tumor Mean (no blocker): 11.97 % ID/g
